Test results published in paper PMC12736255, “Reinvestigating Pyrrol-2-One-Based Compounds: From Antimicrobial Agents to Promising Antitumor Candidates” (Pharmaceuticals, 2025).

Tests used:
Experiment in all cases: NCI-60 single-dose screen
Type in all cases: cell-based
[1] = test system: A498; details: Homo sapiens; A498, 10^–5 M; read-out: GI (%)
From the text: (§1) In the next step, all synthesized compounds were electronically submitted and accepted for testing to the National Cancer Institute (NCI) platform, for the single dose (10^−5 M) screening against a panel of 60 human tumor cell lines, representing leukemia, melanoma, and cancers of the lung, colon, central nervous system, ovary, kidney, prostate, and breast. The results are summarized in Table 2, with the best values highlighted in red (Figures S1–S14).

[2] = test system: M14; details: Homo sapiens; M14, 10^–5 M; read-out: GI (%)
From the text: as §1

[3] = test system: MALME-3M; details: Homo sapiens, 10^–5 M, read-out: GI (%)
From the text: as §1

[4] = test system: NCI-H522; details: Homo sapiens; NCI-H522, 10^–5 M; read-out: GI (%)
From the text: as §1

[5] = test system: COLO205; details: Homo sapiens, COLO 205; COLO205, 10^–5 M; read-out: GI (%)
From the text: as §1

[6] = test system: KM12; details: Homo sapiens; KM12, 10^–5 M; read-out: GI (%)
From the text: as §1

[7] = test system: PC-3; details: Homo sapiens, PC-3, PC-3, 10^–5 M; read-out: GI (%)
From the text: as §1

[8] = test system: CAKI-1; details: Homo sapiens; CAKI-1, 10^–5 M; read-out: GI (%)
From the text: as §1

[9] = test system: HL-60(TB); details: Homo sapiens, 10^–5 M, read-out: GI (%)
From the text: as §1

[10] = test system: IGROV1; details: Homo sapiens, IGROV-1; IGROV1, 10^–5 M; read-out: GI (%)
From the text: as §1

[11] = test system: HT-29; details: Homo sapiens; HT-29, 10^–5 M; read-out: GI (%)
From the text: as §1

[12] = test system: OVCAR-4; details: Homo sapiens; OVCAR-4, 10^–5 M; read-out: GI (%)
From the text: as §1

[13] = test system: SK-OV-3; details: Homo sapiens; SK-OV-3, 10^–5 M; read-out: GI (%)
From the text: as §1

[14] = test system: HCT-15; details: Homo sapiens; HCT-15, 10^–5 M; read-out: GI (%)
From the text: as §1

[15] = test system: 786-0; details: Homo sapiens; 786-0, 10^–5 M; read-out: GI (%)
From the text: as §1

[16] = test system: OVCAR-3; details: Homo sapiens; OVCAR-3, 10^–5 M; read-out: GI (%)
From the text: as §1

[17] = test system: NCI-H322M; details: Homo sapiens, 10^–5 M, read-out: GI (%)
From the text: as §1

[18] = test system: TK-10; details: Homo sapiens; TK-10, 10^–5 M; read-out: GI (%)
From the text: as §1

[19] = test system: DU-145; details: Homo sapiens; DU-145, 10^–5 M; read-out: GI (%)
From the text: as §1

[20] = test system: NCI-H23; details: Homo sapiens; NCI-H23, 10^–5 M; read-out: GI (%)
From the text: as §1

[21] = test system: HCC-2998; details: Homo sapiens; HCC-2998, 10^–5 M; read-out: GI (%)
From the text: as §1

[22] = test system: SNB-75; details: Homo sapiens; SNB-75, 10^–5 M; read-out: GI (%)
From the text: as §1

[23] = test system: K-562; details: Homo sapiens, K562; K-562, 10^–5 M; read-out: GI (%)
From the text: as §1

[24] = test system: SW-620; details: Homo sapiens; SW-620, 10^–5 M; read-out: GI (%)
From the text: as §1

[25] = test system: HOP-92; details: Homo sapiens; HOP-92, 10^–5 M; read-out: GI (%)
From the text: as §1

[26] = test system: SK-MEL-2; details: Homo sapiens; SK-MEL-2, 10^–5 M; read-out: GI (%)
From the text: as §1

[27] = test system: SR; details: Homo sapiens, 10^–5 M, read-out: GI (%)
From the text: as §1

[28] = test system: UACC-257; details: Homo sapiens; UACC-257, 10^–5 M; read-out: GI (%)
From the text: as §1

[29] = test system: CCRF-CEM; details: Homo sapiens, 10^–5 M, read-out: GI (%)
From the text: as §1

[30] = test system: SK-MEL-5; details: Homo sapiens; SK-MEL-5, 10^–5 M; read-out: GI (%)
From the text: as §1

[31] = test system: SF-268; details: Homo sapiens; SF-268, 10^–5 M; read-out: GI (%)
From the text: as §1

[32] = test system: SF-539; details: Homo sapiens; SF-539, 10^–5 M; read-out: GI (%)
From the text: as §1

[33] = test system: MDA-MB-231/ATCC; details: Homo sapiens, 10^–5 M, read-out: GI (%)
From the text: as §1

[34] = test system: NCI-H460; details: Homo sapiens; NCI-H460, 10^–5 M; read-out: GI (%)
From the text: as §1

[35] = test system: OVCAR-8; details: Homo sapiens; OVCAR-8, 10^–5 M; read-out: GI (%)
From the text: as §1

[36] = test system: LOX IMVI; details: Homo sapiens, 10^–5 M, read-out: GI (%)
From the text: as §1

[37] = test system: RPMI-8226; details: Homo sapiens; RPMI-8226, 10^–5 M; read-out: GI (%)
From the text: as §1

Compound	inhibition at 10 µM [1] [%]	inhibition at 10 µM [2] [%]	inhibition at 10 µM [3] [%]	inhibition at 10 µM [4] [%]	inhibition at 10 µM [5] [%]	inhibition at 10 µM [6] [%]	inhibition at 10 µM [7] [%]	inhibition at 10 µM [8] [%]	inhibition at 10 µM [9] [%]	inhibition at 10 µM [10] [%]	inhibition at 10 µM [11] [%]	inhibition at 10 µM [12] [%]	inhibition at 10 µM [13] [%]	inhibition at 10 µM [14] [%]	inhibition at 10 µM [16] [%]	inhibition at 10 µM [17] [%]	inhibition at 10 µM [18] [%]	inhibition at 10 µM [19] [%]	inhibition at 10 µM [20] [%]	inhibition at 10 µM [21] [%]	further results
O=C1C(Nc2ccc(I)cc2)=CC(c2ccccc2)N1c1ccc(I)cc1 (stereo not shown) [3a]	16	0	0	50	0	8	0	3	0	16	0	20	8	19	1	17	12	0	6	0	inhibition at 10 µM [15]: 17%; inhibition at 10 µM [22]: 15%; inhibition at 10 µM [23]: 0%; inhibition at 10 µM [24]: 0%; inhibition at 10 µM [25]: 0%; inhibition at 10 µM [26]: 26%; inhibition at 10 µM [27]: 44%; inhibition at 10 µM [28]: 13%; inhibition at 10 µM [29]: 4%; inhibition at 10 µM [30]: 1%; inhibition at 10 µM [31]: 16%; inhibition at 10 µM [32]: 12%; inhibition at 10 µM [33]: 0%; inhibition at 10 µM [34]: 1%; inhibition at 10 µM [35]: 15%; inhibition at 10 µM [36]: 18%; inhibition at 10 µM [37]: 100%
O=C1C(Nc2ccc(I)cc2)=CC(c2ccc(O)cc2)N1c1ccc(I)cc1 (stereo not shown) [3g]	48	52	83	70	42	80	73	41	75	27	96	85	25	84	59	20	43	58	45	53	inhibition at 10 µM [22]: 77%; inhibition at 10 µM [23]: 78%; inhibition at 10 µM [24]: 56%; inhibition at 10 µM [25]: 66%; inhibition at 10 µM [26]: 56%; inhibition at 10 µM [27]: 100%; inhibition at 10 µM [28]: 42%; inhibition at 10 µM [29]: 94%; inhibition at 10 µM [30]: 27%; inhibition at 10 µM [31]: 35%; inhibition at 10 µM [32]: 69%; inhibition at 10 µM [33]: 44%; inhibition at 10 µM [34]: 69%; inhibition at 10 µM [35]: 31%; inhibition at 10 µM [36]: 44%; inhibition at 10 µM [37]: 100%
COc1ccccc1C1C=C(Nc2ccc(I)cc2)C(=O)N1c1ccc(I)cc1 (stereo not shown) [3i]	6	10	45	37	0	9	15	28	0	57	5	60	19	13	46	0	30	13	30	21	inhibition at 10 µM [22]: 37%; inhibition at 10 µM [23]: 9%; inhibition at 10 µM [24]: 14%; inhibition at 10 µM [25]: 20%; inhibition at 10 µM [26]: 44%; inhibition at 10 µM [27]: 23%; inhibition at 10 µM [28]: 13%; inhibition at 10 µM [29]: 0%; inhibition at 10 µM [30]: 4%; inhibition at 10 µM [31]: 24%; inhibition at 10 µM [32]: 31%; inhibition at 10 µM [33]: 25%; inhibition at 10 µM [34]: 9%; inhibition at 10 µM [35]: 17%; inhibition at 10 µM [36]: 2%; inhibition at 10 µM [37]: 32%
